Data reported in ChEMBL document CHEMBL1201862, “PubChem BioAssay data set” (2004).
The source made the active and inactive calls.

Experiments:
[1] = Shn3 3'UTR reporter inhibitors, dose response, cell-based, Clone20 osteoblasts, firefly luciferase, cherry-picked (AID 624132); format: functional;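 further: firefly luciferase luminescence from reporter carrying the Shn3 3'UTR in osteoblasts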
[2] = HepG2 cell cytotoxicity, dose response, cytotoxicity control for Shn3 inhibitor project, CellTiter-Glo, cherry-picked (AID 624134); format: functional, cell-based
[3] = molecular target: T1, Heat shock factor protein 1 (Mus musculus, UniProt P38532); assay: HSF1 potentiators in luciferase reporter cells, confirmation, cell-based, NIH3T3, luminescence, dose retest (AID 435004); format: functional;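 further: stress induced by proteasome inhibitor MG132 added 30 min after compound; luciferase reporter driven by HSF1 response element in NIH3T3 cells; actives raise luminescence as potentiators of the MG132 stress response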
T1 sequence (P38532 whole entry): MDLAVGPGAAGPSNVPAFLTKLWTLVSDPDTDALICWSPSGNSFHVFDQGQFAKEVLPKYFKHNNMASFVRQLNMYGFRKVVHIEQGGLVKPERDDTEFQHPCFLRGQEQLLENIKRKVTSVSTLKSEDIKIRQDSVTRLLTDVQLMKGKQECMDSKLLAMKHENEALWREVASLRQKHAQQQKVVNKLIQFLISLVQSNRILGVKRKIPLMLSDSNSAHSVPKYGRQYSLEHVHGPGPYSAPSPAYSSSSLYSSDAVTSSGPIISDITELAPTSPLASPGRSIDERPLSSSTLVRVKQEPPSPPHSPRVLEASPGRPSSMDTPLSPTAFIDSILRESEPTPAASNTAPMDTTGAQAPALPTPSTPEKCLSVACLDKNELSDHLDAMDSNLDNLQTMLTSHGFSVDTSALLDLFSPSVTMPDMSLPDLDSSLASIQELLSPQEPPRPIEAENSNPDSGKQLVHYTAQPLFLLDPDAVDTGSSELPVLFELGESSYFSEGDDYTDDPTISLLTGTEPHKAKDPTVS

[4] = molecular target: T2, Short transient receptor potential channel 4 (Mus musculus, UniProt Q9QUQ5); assay: mouse TRPC4 channel activators, dose response, cell-based, HEK293 TRPC4/mu-opioid, Fluo-4 calcium (AID 434937); format: functional
T2 sequence (Q9QUQ5 whole entry): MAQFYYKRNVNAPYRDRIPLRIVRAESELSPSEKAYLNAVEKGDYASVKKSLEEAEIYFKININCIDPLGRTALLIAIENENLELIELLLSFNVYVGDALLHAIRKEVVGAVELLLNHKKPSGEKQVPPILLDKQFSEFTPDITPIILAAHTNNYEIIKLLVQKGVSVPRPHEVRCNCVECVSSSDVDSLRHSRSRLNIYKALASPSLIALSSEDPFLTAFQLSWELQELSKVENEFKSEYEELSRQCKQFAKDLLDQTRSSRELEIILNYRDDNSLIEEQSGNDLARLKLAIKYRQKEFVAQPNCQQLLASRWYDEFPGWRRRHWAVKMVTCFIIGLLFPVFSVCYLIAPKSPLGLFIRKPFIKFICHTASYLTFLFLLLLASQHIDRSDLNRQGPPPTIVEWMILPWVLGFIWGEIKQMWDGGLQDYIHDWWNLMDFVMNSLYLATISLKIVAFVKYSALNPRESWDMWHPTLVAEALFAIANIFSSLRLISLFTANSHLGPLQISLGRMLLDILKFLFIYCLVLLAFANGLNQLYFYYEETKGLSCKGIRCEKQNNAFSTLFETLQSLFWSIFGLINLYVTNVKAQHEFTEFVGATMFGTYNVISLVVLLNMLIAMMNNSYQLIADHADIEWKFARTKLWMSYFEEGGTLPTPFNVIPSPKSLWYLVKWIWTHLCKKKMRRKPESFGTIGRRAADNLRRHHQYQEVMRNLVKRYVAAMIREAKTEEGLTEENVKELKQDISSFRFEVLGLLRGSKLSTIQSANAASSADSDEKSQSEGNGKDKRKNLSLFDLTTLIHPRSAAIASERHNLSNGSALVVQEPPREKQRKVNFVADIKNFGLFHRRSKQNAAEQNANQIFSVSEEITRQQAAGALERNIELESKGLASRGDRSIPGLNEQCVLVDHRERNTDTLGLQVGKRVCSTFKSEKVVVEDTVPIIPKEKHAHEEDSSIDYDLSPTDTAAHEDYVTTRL

[5] = control 3'UTR Renilla luciferase suppression, dose response, counter-screen for Shn3 inhibitor project, cell-based, Clone20-Shn3RL, cherry-picked (AID 624133); format: functional
INS1 = assay: beta cell apoptosis inhibitors, cytokine rescue, dose response, luminescence, retest (AID 449756); format: functional, cell-based; details: Rattus norvegicus;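 further: cell death triggered by IL-1 beta plus TNF-alpha plus IFN-gamma mixture; protective hits raise ATP signal compared with cytokine alone wells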
[6] = molecular target: Sphingosine 1-phosphate receptor 2 (Homo sapiens, UniProt O95136); assay: Dose Response Cell Based Assay for Antagonists of the S1P2 Receptor. [Related pubchem assays: 856, 736 ]; format: functional
Chain of Sphingosine 1-phosphate receptor 2 (O95136 whole entry): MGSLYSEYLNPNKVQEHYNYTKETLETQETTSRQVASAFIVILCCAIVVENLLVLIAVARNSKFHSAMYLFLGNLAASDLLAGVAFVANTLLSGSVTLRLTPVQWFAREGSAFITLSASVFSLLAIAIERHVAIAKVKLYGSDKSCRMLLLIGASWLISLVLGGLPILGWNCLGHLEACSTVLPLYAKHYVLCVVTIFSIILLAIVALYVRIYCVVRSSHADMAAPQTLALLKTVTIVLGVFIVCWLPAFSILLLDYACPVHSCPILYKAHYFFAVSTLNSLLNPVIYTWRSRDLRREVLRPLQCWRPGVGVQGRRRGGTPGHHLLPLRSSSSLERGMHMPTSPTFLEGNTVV

Galanin receptor type 2 = Galanin receptor type 2 (Homo sapiens, UniProt O43603); assay: Dose Response cell-based high-throughput screening assay to identify antagonists of galanin receptor 2 (GALR2). [Related pubchem assays: 828, 866 ]; format: functional
Chain of Galanin receptor type 2 (O43603 whole entry): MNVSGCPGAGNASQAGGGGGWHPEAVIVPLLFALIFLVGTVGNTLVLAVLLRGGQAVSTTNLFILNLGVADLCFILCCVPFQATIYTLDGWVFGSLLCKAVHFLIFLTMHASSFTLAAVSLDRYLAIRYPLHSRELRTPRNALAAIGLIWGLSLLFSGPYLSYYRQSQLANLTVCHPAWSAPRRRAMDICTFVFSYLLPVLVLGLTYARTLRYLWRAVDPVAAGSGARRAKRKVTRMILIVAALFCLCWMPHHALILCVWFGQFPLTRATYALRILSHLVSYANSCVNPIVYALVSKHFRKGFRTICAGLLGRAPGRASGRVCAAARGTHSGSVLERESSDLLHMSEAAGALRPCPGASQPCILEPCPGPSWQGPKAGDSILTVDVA

Cytochrome P450 2C9 = Cytochrome P450 2C9 (Homo sapiens, UniProt P11712)
Chain of Cytochrome P450 2C9 (P11712 whole entry): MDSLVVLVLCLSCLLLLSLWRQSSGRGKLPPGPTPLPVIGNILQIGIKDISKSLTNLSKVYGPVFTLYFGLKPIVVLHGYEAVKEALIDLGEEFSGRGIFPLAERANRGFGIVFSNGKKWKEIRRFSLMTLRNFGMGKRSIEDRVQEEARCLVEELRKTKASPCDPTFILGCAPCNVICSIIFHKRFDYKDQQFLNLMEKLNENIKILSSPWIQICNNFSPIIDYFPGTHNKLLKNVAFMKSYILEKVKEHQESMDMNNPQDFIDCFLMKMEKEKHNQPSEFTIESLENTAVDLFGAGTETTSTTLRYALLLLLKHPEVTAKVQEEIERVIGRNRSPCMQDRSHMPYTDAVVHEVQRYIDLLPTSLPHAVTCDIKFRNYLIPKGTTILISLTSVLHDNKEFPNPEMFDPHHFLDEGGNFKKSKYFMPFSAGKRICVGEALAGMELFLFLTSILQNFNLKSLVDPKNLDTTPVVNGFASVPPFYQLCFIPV

[7] = molecular target: Aryl hydrocarbon receptor (Homo sapiens, UniProt P35869); assay: Luminescence-based cell-based high throughput dose response assay for activators of the Aryl Hydrocarbon Receptor (AHR). [Related pubchem assays: 2796 (Primary screen (AHR activators in singlicate)), 2845 (Confirmation screen (AHR activators in triplicate)), 434939 (Counterscreen (PXR activators in triplicate)), 2804 (Summary (AHR activators))]; format: ADME
Chain of Aryl hydrocarbon receptor (P35869 whole entry): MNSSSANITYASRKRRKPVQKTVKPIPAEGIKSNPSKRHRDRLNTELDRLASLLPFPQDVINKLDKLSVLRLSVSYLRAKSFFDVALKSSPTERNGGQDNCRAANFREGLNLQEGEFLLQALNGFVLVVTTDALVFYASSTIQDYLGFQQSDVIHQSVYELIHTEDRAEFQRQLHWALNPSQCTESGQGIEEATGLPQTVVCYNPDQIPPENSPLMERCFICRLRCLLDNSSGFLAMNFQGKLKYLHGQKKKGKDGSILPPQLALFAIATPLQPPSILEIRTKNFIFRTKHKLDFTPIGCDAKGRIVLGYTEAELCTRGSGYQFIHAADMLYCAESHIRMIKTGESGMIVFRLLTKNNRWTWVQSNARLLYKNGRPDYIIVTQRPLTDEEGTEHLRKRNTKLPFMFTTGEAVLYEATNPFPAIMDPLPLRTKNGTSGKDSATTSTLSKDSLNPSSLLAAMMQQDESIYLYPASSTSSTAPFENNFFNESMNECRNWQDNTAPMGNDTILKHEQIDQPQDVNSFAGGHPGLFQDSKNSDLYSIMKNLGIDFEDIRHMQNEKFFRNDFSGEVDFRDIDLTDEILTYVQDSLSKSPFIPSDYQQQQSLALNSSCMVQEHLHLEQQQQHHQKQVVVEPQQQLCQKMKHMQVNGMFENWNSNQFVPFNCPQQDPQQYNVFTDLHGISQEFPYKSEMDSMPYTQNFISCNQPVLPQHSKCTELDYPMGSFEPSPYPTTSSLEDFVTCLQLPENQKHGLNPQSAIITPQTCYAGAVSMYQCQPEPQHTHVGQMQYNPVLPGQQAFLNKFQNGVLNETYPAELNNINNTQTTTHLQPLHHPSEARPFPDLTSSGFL

Cc1ccc2[nH]c3c(N4CCc5ccccc5C4)ncnc3c2c1
AC50 [1]: 1.18 µM (active)
AC50 [2]: 33.8 µM (active)
EC50 [3]: 103 µM (active)
EC50 [4]: 5.96 µM (active)
AC50 [5]: < 0.26 µM (active)
AC50 (INS1): 1.38 µM (active)
IC50 [6]: 3.63 µM (active)
IC50 (Galanin receptor type 2): > 42 µM (not active)
AC50 (Cytochrome P450 2C9): 2.24 µM (inconclusive)

Cc1cccc2cc3c(N)c(C(=O)N4CCOCC4)sc3nc12
EC50 [3]: > 260 µM (inactive)
EC50 [7]: > 3.39 µM (active)
